“And” between values parts separate entries of the source, which are not always exact repeats. Equal entries are not always repeated.
What was measured:
[1] = biological target: Integrin alpha-IIb/beta-3 (Homo sapiens, UniProt P05106+P08514); assay: Inhibitory activity was determined against human alpha IIb beta3 integrin; assay type: protein-complex assay
[2] = organism: Homo sapiens; assay: Inhibition of human vascular smooth muscle proliferation was determined; assay type: functional; conditions: Muscle tissue
[3] = biological target: Integrin alpha-V/beta-3 and alpha-IIb/beta 3 (Homo sapiens) (UniProt P05106+P06756+P08514); assay: Ratio of inhibitory activity against human alpha V beta-3 integrin to that of alpha IIb beta-3 integrin; assay type: protein assay
[4] = test system: Rattus norvegicus; assay: Ratio of Intima area to media area was tested by subcutaneous infusion of compound at a constant rate of 1.3 umol/rat/day; assay type: functional
[5] = test system: Rattus norvegicus; assay: Antistenoic effect infused subcutaneously at a constant rate of 1.3 umol/rat/day; assay type: functional
[6] = biological target: Integrin alpha-V/beta-3 (Homo sapiens, UniProt P05106+P06756); assay: Inhibitory activity was determined against human vitronectin receptor (alpha V beta 3); assay type: protein-complex assay
[7] = test system: Rattus norvegicus; assay: Antistenoic effect infused subcutaneously at a constant rate of 0.14 umol/rat/day; assay type: functional
[8] = test system: Rattus norvegicus; assay: Antistenoic effect infused subcutaneously at a constant rate of 0.43 umol/rat/day; assay type: functional

Sequence of Integrin alpha-IIb/beta-3 (P05106 27-788 limits assumed): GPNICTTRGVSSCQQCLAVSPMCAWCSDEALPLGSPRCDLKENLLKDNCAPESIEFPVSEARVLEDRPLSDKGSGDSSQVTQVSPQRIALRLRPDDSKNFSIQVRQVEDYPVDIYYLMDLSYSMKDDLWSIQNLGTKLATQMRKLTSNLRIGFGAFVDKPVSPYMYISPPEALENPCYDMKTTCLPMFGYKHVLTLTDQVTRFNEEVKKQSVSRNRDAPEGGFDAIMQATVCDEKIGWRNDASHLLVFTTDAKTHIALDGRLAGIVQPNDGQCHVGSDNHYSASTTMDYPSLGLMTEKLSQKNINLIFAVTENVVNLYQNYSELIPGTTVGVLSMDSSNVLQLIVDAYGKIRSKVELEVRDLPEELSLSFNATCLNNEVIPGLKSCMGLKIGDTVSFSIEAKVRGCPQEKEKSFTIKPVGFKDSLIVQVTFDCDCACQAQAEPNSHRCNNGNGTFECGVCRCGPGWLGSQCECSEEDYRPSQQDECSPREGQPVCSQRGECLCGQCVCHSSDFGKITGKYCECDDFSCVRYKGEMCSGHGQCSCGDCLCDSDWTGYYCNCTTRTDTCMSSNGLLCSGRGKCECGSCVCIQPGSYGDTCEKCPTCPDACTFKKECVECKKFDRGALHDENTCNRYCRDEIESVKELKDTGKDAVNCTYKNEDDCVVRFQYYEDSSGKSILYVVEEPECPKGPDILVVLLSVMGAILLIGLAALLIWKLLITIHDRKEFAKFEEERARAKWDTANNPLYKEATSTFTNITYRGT
Sequence of Integrin alpha-IIb/beta-3 (P08514 32-887 limits assumed): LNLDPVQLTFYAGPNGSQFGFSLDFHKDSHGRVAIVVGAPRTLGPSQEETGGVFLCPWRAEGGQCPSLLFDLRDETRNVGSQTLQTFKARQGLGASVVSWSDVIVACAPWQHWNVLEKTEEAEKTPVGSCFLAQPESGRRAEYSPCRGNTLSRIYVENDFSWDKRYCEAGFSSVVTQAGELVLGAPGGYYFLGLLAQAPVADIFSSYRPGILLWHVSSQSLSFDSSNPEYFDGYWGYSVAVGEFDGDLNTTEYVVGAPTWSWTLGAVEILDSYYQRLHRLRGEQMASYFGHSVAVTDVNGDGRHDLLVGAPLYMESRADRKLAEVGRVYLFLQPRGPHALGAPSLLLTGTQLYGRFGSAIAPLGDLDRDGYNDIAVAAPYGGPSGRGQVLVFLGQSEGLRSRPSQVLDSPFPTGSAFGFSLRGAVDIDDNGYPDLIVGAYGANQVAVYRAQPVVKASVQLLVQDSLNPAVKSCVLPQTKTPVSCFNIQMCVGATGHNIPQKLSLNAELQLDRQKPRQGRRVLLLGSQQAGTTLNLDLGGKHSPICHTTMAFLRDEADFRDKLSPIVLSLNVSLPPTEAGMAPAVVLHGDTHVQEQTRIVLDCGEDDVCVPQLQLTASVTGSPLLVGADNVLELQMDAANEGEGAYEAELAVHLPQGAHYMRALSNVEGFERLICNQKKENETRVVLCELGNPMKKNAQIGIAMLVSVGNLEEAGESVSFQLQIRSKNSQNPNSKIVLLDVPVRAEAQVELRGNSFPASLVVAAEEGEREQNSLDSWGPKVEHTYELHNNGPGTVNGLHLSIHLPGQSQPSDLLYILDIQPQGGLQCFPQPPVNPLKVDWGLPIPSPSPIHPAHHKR
Sequence of Integrin alpha-IIb/beta-3 (P08514 891-1039 limits assumed): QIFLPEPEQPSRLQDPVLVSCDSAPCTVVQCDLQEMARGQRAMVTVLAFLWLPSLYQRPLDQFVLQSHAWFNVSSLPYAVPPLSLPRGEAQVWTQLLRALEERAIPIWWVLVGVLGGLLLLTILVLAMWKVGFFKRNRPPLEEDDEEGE
Sequence of Integrin alpha-V/beta-3 (P05106 27-788 limits assumed): as the sequence (P05106 27-788 limits assumed) above
Sequence of Integrin alpha-V/beta-3 (P06756 31-889 limits assumed): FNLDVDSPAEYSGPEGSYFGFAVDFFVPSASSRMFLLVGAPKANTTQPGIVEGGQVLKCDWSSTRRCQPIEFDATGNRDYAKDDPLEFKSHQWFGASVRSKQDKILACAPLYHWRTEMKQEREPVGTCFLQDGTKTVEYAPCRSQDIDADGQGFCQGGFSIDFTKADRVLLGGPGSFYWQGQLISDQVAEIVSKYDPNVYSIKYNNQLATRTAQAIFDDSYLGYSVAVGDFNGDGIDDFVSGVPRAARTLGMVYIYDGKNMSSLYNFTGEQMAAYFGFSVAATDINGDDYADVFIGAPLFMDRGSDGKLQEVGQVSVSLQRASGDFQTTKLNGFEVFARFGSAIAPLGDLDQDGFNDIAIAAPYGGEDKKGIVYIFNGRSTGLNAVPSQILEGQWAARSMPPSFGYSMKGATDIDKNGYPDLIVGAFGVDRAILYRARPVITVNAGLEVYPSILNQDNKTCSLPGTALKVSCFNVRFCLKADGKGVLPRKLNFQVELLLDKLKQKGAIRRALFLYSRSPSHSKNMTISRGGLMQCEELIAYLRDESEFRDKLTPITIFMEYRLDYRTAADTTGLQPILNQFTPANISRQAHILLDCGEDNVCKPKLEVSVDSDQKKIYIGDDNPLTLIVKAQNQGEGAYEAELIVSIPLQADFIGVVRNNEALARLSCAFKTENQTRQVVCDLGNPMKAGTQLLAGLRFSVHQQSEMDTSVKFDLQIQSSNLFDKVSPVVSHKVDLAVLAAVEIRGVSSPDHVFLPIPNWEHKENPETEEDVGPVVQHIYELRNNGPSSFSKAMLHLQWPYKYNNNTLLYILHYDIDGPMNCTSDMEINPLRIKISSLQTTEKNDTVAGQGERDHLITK
Sequence of Integrin alpha-V/beta-3 (P06756 891-1048 limits assumed): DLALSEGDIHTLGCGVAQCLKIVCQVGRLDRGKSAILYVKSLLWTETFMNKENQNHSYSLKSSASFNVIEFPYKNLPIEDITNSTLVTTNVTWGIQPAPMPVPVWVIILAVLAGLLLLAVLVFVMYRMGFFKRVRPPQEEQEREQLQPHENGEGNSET

SMILES | IC50 [1] [nM] | IC50 [2] [nM] | Ratio [3] | intima/media ratio [4] | Inhibition [5] | Intima area [5] | IC50 [6] [nM] | Inhibition [7] [%] | Inhibition [8] [%]
CCOC(=O)N[C@@H](CCC(=O)N1CCN(c2cccc(NC3=NCCCN3)c2)CC1)C(=O)O | > 1000 | 2100 | > 1700 | – | – | – | – | – | –
O=C(N[C@@H](CCC(=O)N1CCN(c2cccc(NC3=NCC(F)CN3)c2)CC1)C(=O)O)OCc1ccccc1 (stereo partly specified) | – | 260 | 8600 | 0.76 | 38% and 34% | 113 10e3 um2 and 149 10e3 um2 | – | – | –
O=C(N[C@@H](CCC(=O)N1CCN(c2cccc(NC3=NCCCN3)c2)CC1)C(=O)O)OCc1ccccc1 | 660 | 1100 | 11000 | – | – | – | 0.058 | – | –
O=C(Cc1ccccc1)N[C@@H](CCC(=O)N1CCN(c2cccc(NC3=NCCCN3)c2)CC1)C(=O)O | > 1000 | > 10000 | > 150 | – | – | – | – | – | –
O=C(N[C@@H](CCC(=O)N1CCN(c2cccc(NC3=NCC(O)CN3)c2)CC1)C(=O)O)OCc1ccccc1 (stereo partly specified) | – | 3500 | 2300 | – | – | – | – | – | –
CC(C)COC(=O)N[C@@H](CCC(=O)N1CCN(c2cccc(NC3=NCC(F)CN3)c2)CC1)C(=O)O (stereo partly specified) | > 1000 | 180 | > 18000 | 0.5 | 54% and 53% | 81 10e3 um2 and 162 10e3 um2 | – | 21 | 38
O=C(N[C@@H](CCC(=O)N1CCN(c2cccc(NC3=NCCN3)c2)CC1)C(=O)O)OCc1ccccc1 | – | 3000 | 4500 | – | – | – | – | – | –
CC(C)COC(=O)N[C@@H](CCC(=O)N1CCN(c2cccc(NC3=NCC(C)(C)CN3)c2)CC1)C(=O)O | > 1000 | 3400 | > 2600 | – | – | – | – | – | –
Cc1cc(C)c(S(=O)(=O)N[C@@H](CCC(=O)N2CCN(c3cccc(NC4=NCCCN4)c3)CC2)C(=O)O)c(C)c1 | – | > 10000 | 140 | – | – | – | – | – | –
O=C(O)[C@H](CCC(=O)N1CCN(c2cccc(NC3=NCCCN3)c2)CC1)NS(=O)(=O)c1ccccc1 | 88 | > 10000 | 63 | – | – | – | 1.4 | – | –
CC(C)COC(=O)N[C@@H](CCC(=O)N1CCN(c2cccc(NC3=NCCCN3)c2)CC1)C(=O)O | > 1000 | 910 | > 3100 | – | – | – | – | – | –
O=C(N[C@@H](CCC(=O)N1CCN(c2cccc(NC3=NCCCCN3)c2)CC1)C(=O)O)OCc1ccccc1 | > 1000 | 1700 | > 18000 | – | – | – | – | – | –
O=C(NCc1ccccc1)N[C@@H](CCC(=O)N1CCN(c2cccc(NC3=NCCCN3)c2)CC1)C(=O)O | > 1000 | > 10000 | > 710 | – | – | – | – | – | –
CC(C)COC(=O)N[C@@H](CCC(=O)N1CCN(c2cccc(NC3=NCC(O)CN3)c2)CC1)C(=O)O (stereo partly specified) | > 1000 | 2000 | > 33000 | – | – | – | – | – | –
CCNC(=O)N[C@@H](CCC(=O)N1CCN(c2cccc(NC3=NCCCN3)c2)CC1)C(=O)O | > 1000 | > 10000 | > 280 | – | – | – | – | – | –
